Test results taken from US6054475A, “Substituted dihydrobenzofuran-based phosphodiesterase 4 inhibitors useful for treating airway disorders” (Byk Gulden Lomberg Chemische Fabrik GmbH, priority 1996, dated 2000).

Test system: PDE4
Assay: Inhibition of PDE4 activity (method of Bauer and Schwabe, adapted to microtiter plates)
Format: biochemical
Details: Table A; inhibitory concentrations as -log IC50 (mol/l)
Description: The activity test was carried out according to the method of Bauer and Schwabe, which was adapted to microtiter plates (Naunyn-Schmiedeberg's Arch. Pharmacol. 311, 193-198, 1980). The PDE reaction takes place here in the first step. In a second step, the resulting 5'-nucleotide is cleaved to give the uncharged nucleoside by a 5'-nucleotidase of the snake venom from Crotalus atrox. In the third step, the nucleoside is separated from the remaining charged substrate on ion exchange columns. Using 2 ml of 30 mM ammonium formate (pH 6.0), the columns are eluted directly into minivials to which is additionally added 2 ml of scintillator fluid for counting.

`COc1ccc([C@]2(C#N)CC[C@@H](C(=O)O)CC2)c2c1OC1(CCCC1)C2` [Compound 2.1, cis-4-Cyano-4-(2,3-dihydro-7-methoxybenzofuran-2-spiro-1'-cyclopentan-4-yl)cyclohexane-1-carboxylic acid] and `COc1ccc([C@]2(C#N)CC[C@@H](C(N)=O)CC2)c2c1OC1(CCCC1)C2` [Compound 5, cis-4-Cyano-4-(2,3-dihydro-7-methoxybenzofuran-2-spiro-1'-cyclopentan-4-yl)cyclohexane-1-carboxamide] are within 0.2 log units of each other in “-log IC50 (inhibition of PDE4 activity)” value: 8.22 for the first, 8.31 for the second.

`COc1ccc([C@]2(C#N)CC[C@@H](C(=O)O)CC2)c2c1OC1(CCOCC1)C2` [Compound 4, cis-4-Cyano-4-(2,3-dihydro-7-methoxybenzofuran-2-spiro-4'-tetrahydropyran-4-yl)cyclohexane-1-carboxylic acid] and `COc1ccc([C@]2(C#N)CC[C@@H](C(N)=O)CC2)c2c1OC1(CCOCC1)C2` [Compound 6, cis-4-Cyano-4-(2,3-dihydro-7-methoxybenzofuran-2-spiro-4'-tetrahydropyran-4-yl)cyclohexane-1-carboxamide] are within 0.2 log units of each other in “-log IC50 (inhibition of PDE4 activity)” value: 7.69 for the first, 7.65 for the second.

Going from `COc1ccc([C@]2(C#N)CC[C@@H](C(=O)NO)CC2)c2c1OC1(CCCC1)C2` [Compound 7, cis-4-Cyano-4-(2,3-dihydro-7-methoxybenzofuran-2-spiro-1'-cyclopentan-4-yl)cyclohexane-1-carboxylic acid hydroxylamide] to `COc1ccc(C2(C#N)CCOCC2)c2c1OC1(CCCC1)C2` [Compound 9, 4-a-Cyano-4-e-(2,3-dihydro-7-methoxybenzofuran-2-spiro-1'-cyclopentan-4-yl)tetrahydropyran], the “-log IC50 (inhibition of PDE4 activity)” value rises from 7.52 to 8.26.

Compared with `COc1ccc([C@]2(C#N)CC[C@@H](OP(=O)(O)Oc3ccccc3)CC2)c2c1OC1(CCCC1)C2` [Compound 8, cis-4-Cyano-4-(2,3-dihydro-7-methoxybenzofuran-2-spiro-1'-cyclopentan-4-yl)cyclohexyl-1-phenyl phosphate], `COc1ccc(C2(C#N)CCC(=NO)CC2)c2c1OC1(CCCC1)C2` (centres unmarked) [Compound 14, 4-a-Cyano-4-e-(2,3-dihydro-7-methoxybenzofuran-2-spiro-1'-cyclopentan-4-yl)cyclohexan-1-one oxime] is higher in “-log IC50 (inhibition of PDE4 activity)” value: 7.44 for the first, 7.78 for the second.

Compared with `COc1ccc(C2(C#N)CCS(=O)(=O)CC2)c2c1OC1(CCCC1)C2` [Compound 11, 1,1-Dioxo-4-a-cyano-4-e-(2,3-dihydro-7-methoxybenzofuran-2-spiro-1'-cyclopentan-4-yl)tetrahydro-1-thiopyran], `COc1ccc(C2(C#N)CCNC(=O)CC2)c2c1OC1(CCCC1)C2` (centres unmarked) [Compound 16, 7-Oxo-4-cyano-4-(2,3-dihydro-7-methoxybenzofuran-2-spiro-1'-cyclopentan-4-yl)hexahydroazepine] is higher in “-log IC50 (inhibition of PDE4 activity)” value: 7.72 for the first, 7.96 for the second.

With `COc1ccc(C2(OC)CCOCC2)c2c1OC1(CCCC1)C2` [Compound 13, 4-a-Methoxy-4-e-(2,3-dihydro-7-methoxybenzofuran-2-spiro-1'-cyclopentan-4-yl)tetrahydropyran] the “-log IC50 (inhibition of PDE4 activity)” value was 7.41.
